This assay addresses Bruton's tyrosine kinase (Btk) (Homo sapiens, UniProt Q06187). The assay can be described thus: IC50. In kind it is biochemical.

Sequence of Bruton's tyrosine kinase (Btk) (Q06187 2-659): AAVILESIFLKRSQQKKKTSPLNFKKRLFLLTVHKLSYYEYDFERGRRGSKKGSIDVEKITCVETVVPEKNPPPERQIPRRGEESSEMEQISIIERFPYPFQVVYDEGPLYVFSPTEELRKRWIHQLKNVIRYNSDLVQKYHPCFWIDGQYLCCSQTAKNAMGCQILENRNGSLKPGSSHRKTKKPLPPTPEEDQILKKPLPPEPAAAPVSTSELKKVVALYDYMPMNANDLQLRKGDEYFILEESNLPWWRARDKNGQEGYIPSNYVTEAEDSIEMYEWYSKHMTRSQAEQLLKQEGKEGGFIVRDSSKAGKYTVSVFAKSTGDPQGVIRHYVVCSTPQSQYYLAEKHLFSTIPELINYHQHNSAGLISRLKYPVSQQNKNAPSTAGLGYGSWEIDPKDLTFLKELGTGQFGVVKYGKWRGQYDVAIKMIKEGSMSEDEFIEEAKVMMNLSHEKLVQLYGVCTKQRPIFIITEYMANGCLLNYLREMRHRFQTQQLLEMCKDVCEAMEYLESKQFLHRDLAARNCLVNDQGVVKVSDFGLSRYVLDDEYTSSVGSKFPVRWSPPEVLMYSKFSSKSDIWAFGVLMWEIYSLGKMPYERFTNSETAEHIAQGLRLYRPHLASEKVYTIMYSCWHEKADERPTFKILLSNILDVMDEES

In the case of AVL-292-SiR-COOH, the IC50 (as a rule, the concentration at which inhibition is half-maximal) was 284 nM.

(Values after publication PMC4772718 (Bioconjugate chemistry, 2015).)
